# Assay results: US20190110971A1, “COMPOSITIONS FOR MANAGING PLAQUE FORMATION” (THE REGENTS OF THE UNIVERSITY OF CALIFORNIA, priority 2016, published 2019)
# Test system: bracket-induced plaque formation (saliva-derived plaques on HA discs with brackets)
# Assay: in vitro bracket-induced biofilm model system, crystal violet assay
# Assay type: cell-based
# Details: in vitro grown plaques from pooled human saliva, FIG. 5B/5C
# From the text: These discs were then fitted into 12-well tissue culture plates for the growth of saliva-derived plaques. One unique feature of this system is use of a new culture medium developed by this laboratory (Shi-medium, Tian Y 2010) which allows the biofilm grown in vitro to be very similar to in vivo human plaque.
# A mixed pool of human saliva samples was collected from 10 volunteers to develop in vitro grown plaques on the model system developed above. Amino acids and sugar monomers and analogs were selected mostly from the list of FDA Generally Recognized As Safe (GRAS) compounds (http://www.fda.gov/Food/Ingredients PackagingLabeling/GRAS/SCOGS/ default.htm). The anti-biofilm inhibitory function of these chemicals was assayed with a crystal violet assay (Sharma A 2005), as illustrated in FIG. 5A. The compounds with more than 10× inhibitory effects were further investigated.
row,SMILES,inhibitory effects against bracket-induced plaque formation
1,"C[C@@H](N)C(=O)O [D-Ala, D-alanine]",strong inhibitory effects
2,"NCCCC[C@H](N)C(=O)O [L-Lys, L-lysine]",strong inhibitory effects
3,"CC(=O)N[C@H]1C(O)O[C@H](CO)[C@@H](O)[C@@H]1O (stereo partly drawn) [N-acyl-Glucosamine, N-acetylglucosamine]",strong inhibitory effects
4,"NCCCC[C@@H](N)C(=O)O [D-Lys, D-lysine]",strong inhibitory effects
5,"C[C@H](O)[C@@H](N)C(=O)O [D-Thr, D-threonine]",strong inhibitory effects
6,"N=C(N)NCCC[C@H](N)C(=O)O [L-Arg, L-arginine]",strong inhibitory effects
